A word on the melting point: it is the temperature of the solid-liquid transition.

As to `CC(=O)N(C)[C@@H]1CC[C@@H](NC(=O)Nc2nc(C)cs2)[C@H](CN2CCC[C@@H](Cc3ccc(F)cc3)C2)C1` [Example 1, N-{(3S,4R)-3-[3S-(4-Fluorobenzyl)-piperidin-1-ylmethyl]-4-[3-(4-methyl-thiazol-2-yl)-ureido]-(R)-cyclohexyl}-N-methyl-acetamide], the melting point is 191 °C.
